Measurements reported in patent publication US7141540B2, “Cyclodextrin grafted biocompatible amphilphilic polymer and methods of preparation and use thereof” (Genta Salus LLC, priority 2001, dated 2006).

Experiments:
human red blood cells = assay: Hemolysis on fresh human blood cells; type: cell-based; details: for Hemolysis (HC50, mM): human red blood cells, 30 minutes at 37° C., 0 to 50 mg/ml in PBS
Method: To further investigate the cytotoxicity of our polymers and their possible biodegradation products, their hemolysis effects were tested on fresh human blood cells in comparison with commercial CD monomers as describe below. The degree of hemolysis was reported as a percentage of the total efflux of hemoglobin in distilled water (Table 6)
1. Red blood cells were isolated from whole human blood by centrifugation at 1000 g for 10 minutes.
2. The plasma was removed and the red blood cells re-suspended in normal buffed saline (PBS, 0.154 M sodium chloride and 0.01 M phosphate, pH=7.4). The red blood cells were pelleted by centrifugation (1000 g for 10 minutes).
3. Step 2 was repeated twice to remove the heme released from damaged cells.
4. The final pellet was diluted with PBS to give a hematocrit of approximately 12 (or 5%) as determined by centrifugal sedimentation.
5.2 ml of polymer or cyclodextrin solutions of a series of concentrations from 0 to 50 mg/ml in PBS buffer) equilibrated at 37° C. in PBS buffer were equilibrated at 37° C. To this was added 100 ul of a red blood cell suspension followed by mixing of the sample with gentle inversion. The samples were incubated for 30 minutes at 37° C.
6. The intact cells and cellular debris were pelleted by centrifugation at 1000 g for 5 min. The supernatant was analyzed spectrophotometrically at 543 nm for released heme.

[1] = Paclitaxel loading (solubilisation) by CD polymers or CD monomers; type: physicochemical
Method: Preparation of Paclitaxel Complexes with CD Polymers or CD Monomers
(A) Co-dissolving Method: This Method is Suitable for all Complexes with Water Soluble Polymers
The aqueous solution of polymer (or monomer controls) (usually about 100 mg/ml) was mixed with equal volume (usually 40 to 2000 ul) of the paclitaxel solution (Cpaclitael=0.1 to 8.0 mg/ml in methanol). The mixture was incubated at room temperature for about half an hour. Then the solvents were removed in a centrifuge concentrator at room temperature. The concentrated syrup or wax solid was reconstituted by adding water or PBS buffer to the original volume. The mixture was usually a clear or slightly cloudy solution after 30 minutes of reconstitution. The un-dissolved paclitaxel particles were removed either by ultra-filtration (0.2 um filter) or by centrifugation (20 minutes at 20,800 g and room temperature). The paclitaxel concentration in the clear supernatant was quantified by UV absorbance at […] by using the corresponding cyclodextrin polymer solution as the background calibration.
(B) Dialysis Method: This Method is Suitable for the Preparation of all Paclitaxel/polymer Complex Solutions:
The methanol solution of the polymer (usually […]) was mixed with equal volume (100 ul) of paclitaxel solution (1 to 3 mg/ml in methanol). The clear mixture was incubated at room temperature for about half an hour at room temperature, followed by dialysis (MWCO=12,000) overnight against 2 L water. The dialysis solution was usually a clear solution. Trace amounts of paclitaxel particles were removed either by ultra-filtration (0.2 um filter) or by centrifugation (20 minutes at 20,800 g and room temperature). The clear solution was stored at 4° C. or below.

[2] = Stability of Taxol/CD complexes in 50% fetal bovine serum; type: physicochemical; details: paclitaxel complex, 50% Serum, room temperature
Method: (§1) Stability of Taxol/CD Complexes in 50% Serum or After 10 Fold Dilution in PBS:
(§2) • (A) Stability in 50% fetal bovine serum: Taxol/PEG-L8-AcCD (2.0 mg/50 mg in 1.0 ml PBS buffer) or Taxol/DMCD (0.5 mg/50 mg in PBS buffer) complex solutions were prepared as describe in method A of example 7. Fifty micro liters of the complex solutions were diluted with equal volume of fetal bovine serum respectively. Both mixtures were centrifuged at […] at room temperature after incubation at room temperature for 2 hours, 21 hours, 49 hours and 144 hours, respectively. The Taxol concentration in each supernatant was quantified by measuring the UV absorption at 230 nm. • (B) Stability after 10 fold dilution with PBS: Taxol/PEG-L8-AcCD (2.0 mg/50 mg in 1.0 ml PBS buffer) or Taxol/DMCD (0.5 mg/50 mg in PBS buffer) complex solutions were prepared as describe in example 10. Fifty micro liters of the complex solutions were diluted with 450 micro liter of PBS buffer, respectively. Both mixtures were centrifuged at […] at room temperature after incubated room temperature for 2 hours, 21 hours, 49 hours and 144 hours. The Taxol concentration in each supernatant was quantified by measuring the UV absorption at 230 nm.

[3] = at 50% CD concentrations; cited from earlier work
[4] = Stability of Taxol/CD complexes after 10 fold dilution with PBS; type: physicochemical; details: paclitaxel complex, 10X PBS, room temperature
Method: as §1, §2

[5] = Drug amount in 1.0 ml water or PBS in the presence of 50 mg of polymer or other CD derivatives

Mono-6-(8-amino-3,6-dioxy-octylamino)-6-deoxy-β-cyclodextrin [CD-L8-NH2]
toxicity compared with natural β-cyclodextrin (human red blood cells): much less toxic | Hemolysis (HC50, mM) (human red blood cells): 25 mM

sulfobutylether-β-cyclodextrin [(SBE)7-CD]
Paclitaxel loading (mg/50 mg polymer) [1, 5]: <0.05 mg/50 mg polymer

methyl-β-cyclodextrin [DM-CD]
Remaining paclitaxel % in diluted solution ([2]; 0 hour): 100% | Remaining paclitaxel % in diluted solution ([2]; 2 hour): 100% | Remaining paclitaxel % in diluted solution ([2]; 21 hour): 100% | Remaining paclitaxel % in diluted solution ([2]; 49 hour): 100% | Remaining paclitaxel % in diluted solution ([2]; 144 hour): 100% | paclitaxel dissolved [3]: ~33 mg/mL | Hemolysis (HC50, mM) (human red blood cells): 1.0 mM | Paclitaxel loading (mg/50 mg polymer) ([1]; at day 1, drug amount in 1.0 ml water or PBS in the presence of 50 mg of CD derivative): ˜0.2 (at day 1) mg/50 mg polymer | Remaining paclitaxel % in diluted solution ([4]; 0 hour): 100% | Remaining paclitaxel % in diluted solution ([4]; 2 hour): 86% | Remaining paclitaxel % in diluted solution ([4]; 21 hour): 13%

OC[C@H]1O[C@@H]2O[C@H]3[C@H](O)[C@@H](O)[C@@H](O[C@H]4[C@H](O)[C@@H](O)[C@@H](O[C@H]5[C@H](O)[C@@H](O)[C@@H](O[C@H]6[C@H](O)[C@@H](O)[C@@H](O[C@H]7[C@H](O)[C@@H](O)[C@@H](O[C@H]8[C@H](O)[C@@H](O)[C@@H](O[C@H]1[C@H](O)[C@H]2O)O[C@@H]8CO)O[C@@H]7CO)O[C@@H]6CO)O[C@@H]5CO)O[C@@H]4CO)O[C@@H]3CO [βCD, β-cyclodextrin]
Hemolysis (HC50, mM) (human red blood cells): 4.0 mM

hydoxylpropyl β-cyclodextrin [HP-CD]
paclitaxel dissolved [3]: about 0.7 mg/ml | Hemolysis (HC50, mM) (human red blood cells): 35 mM | Paclitaxel loading (mg/50 mg polymer) [1, 5]: <0.05 mg/50 mg polymer
